Measured values published in a melting point compilation (Tetko et al.; mined from patent text by program, amines drawn as free bases though some values may be those of a salt).

Row | melting point | SMILES
1 | 144 to 145 °C | COc1ccc(CO)cc1OCc1nc(-c2ccccc2)oc1C
2 | 166 to 168 °C | Cc1nn(C)c2nc(C(C)C)c(CO)c(-c3ccc(F)cc3)c12
3 | 246 to 247 °C | CN(c1cccc2cc(-c3ncc(CCC(N)=O)s3)[nH]c12)S(=O)(=O)c1cccs1
4 | 92 to 95 °C | COc1ccc2c(c1)CC(CCCNCCCSc1nnc(-c3ccccc3)n1C)CC2 (stereo not given)
5 | 164 °C | Clc1cccnc1-c1ccc2[nH]nc(Nc3ccccn3)c2c1
6 | 159 to 161 °C | COc1ccc2c(c1)C[C@@H](C(N)=O)CC2
7 | 185 to 186 °C | CCOC(Cc1ccc(OCc2nc(C(C)(C)C)oc2C)c2ccccc12)C(=O)O (stereo not given)
8 | 146 °C | O=[N+]([O-])c1ccc(C2OCc3ccc(CO)cc3CO2)cc1 (stereo not given)
9 | 85 to 90 °C | O=C(O)C1C2C=CC(C2)C1C(F)(F)F (stereo not given)
10 | 122 to 123 °C | N#CCOc1ccc(F)c(C(N)=O)c1F
11 | 89 to 89.5 °C | CCCc1c(OCCCOc2ccc3c(c2CCC)OC(CCC#N)CC3)ccc(C(C)=O)c1O (stereo not given)
12 | 108 to 111 °C | CCOC(=O)CC(O)c1ccc2c(c1)CC(CNS(=O)(=O)c1ccc(Cl)cc1)C2 (stereo not given)
13 | 147 °C | Oc1ccc2c(c1)CCCC(c1ccccc1)=C2c1ccc(OCCCCCSCc2ccc(C(F)(F)F)cc2)cc1
14 | 210 to 212 °C | COc1cc2c(Nc3ccc(Cl)cc3F)ncnc2cc1OCc1ccnc(Br)c1
15 | 95 °C | Cc1cccc(-c2[nH]c(C(C)C)nc2-c2ccc(F)c(-c3ccc(OCCN4CCCC4=O)cc3)c2)n1
16 | 142 to 143 °C | c1cc(NC2=NCCN2)ccc1Cc1cc(OC2CCCC2)cs1
17 | > 250 °C | O=c1[nH]c2ccccc2n1CCN1CCN(c2ccc(O)c(C(F)(F)F)c2)CC1
18 | 166 to 168 °C | CC(=O)OC1C(CO)OC(c2ccc(Cl)c(Cc3ccc(-c4ccccc4)s3)c2)C(OC(C)=O)C1OC(C)=O (stereo not given)
19 | 245 to 246 °C | O=c1c2cc(F)c(Cl)nc2n(-c2ccc(C(F)(F)F)cc2)c(=O)n1OCc1ccccc1
20 | 78 to 79 °C | O=C(O)CCCCCCOc1ccc(-c2ccccc2)cc1
21 | 228 to 229 °C | COc1ccc2c(c1)CC(C(N)=O)N2 (stereo not given)
22 | 190 °C | Oc1ccc2c(C3CCCCC3)nsc2c1
23 | 158 to 161 °C | C=Cc1cc(C)cc(C)c1C1=C(O)C2(CCN(OC)CC2)N(C)C1=O
24 | 305 to 308 °C | O=C1Nc2ccc(Br)cc2C1c1ncnc2c1cnn2C1CCCCC1 (stereo not given)

Row | melting point | SMILES
25 | 215 to 220 °C | O=C(O)C1CN(S(=O)(=O)c2ccc3cc(Cl)ccc3c2)CCN1C(=O)C1CCN(c2ccncc2)CC1 (stereo not given)
26 | 83 to 85 °C | C=CCOC(=O)CCC(C)(c1ccc(O)cc1)c1ccc(O)cc1
27 | 255 °C | CN1CCN(C(=O)OC2C3=C(SCCS3)C(=O)N2c2ccc3cccnc3n2)CC1 (stereo not given)
28 | 152 to 153 °C | CCOC(=O)c1ccc(Oc2ccccc2C(=O)O)cc1
29 | 129 to 130 °C | CC=C(NC(=O)C1CC1(CC)CC)C(=O)O (stereo not given)
30 | 110 to 111 °C | COC(=O)c1c(Sc2ccc(Cl)cc2)c2cc(C)ccc2n1C
31 | 97 to 98 °C | COc1ccc(Sc2ccc3c(c2)OCC(=O)N3)cc1OC
32 | 225 to 233 °C | CCC(=NNc1ccc(-c2ccc(=O)n(C)n2)cc1)c1ccc(O)cc1O
33 | 96 to 97 °C | CCCc1c(Cl)c2cc(Br)ccc2oc1=O
34 | > 300 °C | Cc1nc2c(O)nc3ccccc3c2n1C
35 | 229 to 233 °C | Cc1c(-c2ccccc2)n(-c2ccccc2)c(-c2ccc(C#N)cc2)cc1=O
36 | 165 to 167 °C | COC(=O)c1ccc(CNC(=O)c2ccc3n2Cc2ccccc2N(C(=O)COc2ccc(Cl)cc2C)C3)cc1
37 | 69 to 75.2 °C | O=C1C2=C(CCCC2)C(=O)N1c1cc(OC2CCCC2)c(Cl)cc1F
38 | > 300 °C | O=C1CN2Cc3c(ccc(Cl)c3Cl)N=C2N1
39 | 171 to 172 °C | CCOc1ccc(CC2SC(=N)NC2=O)cc1OCC (stereo not given)
40 | 108 to 111 °C | N#CCCSCc1csc(=O)[nH]1
41 | 123 to 126 °C | C=CCc1ccc(-c2nc3c(N[C@H]4[C@@H](C(N)=O)[C@@H]5C=C[C@H]4C5)c(Cl)cnc3[nH]2)c(OC)c1
42 | 104 to 105 °C | N=C(N)NOCc1ccccc1
43 | 98 to 99 °C | CCOc1cccnc1CSCCN=C(NC#N)SC
44 | 239 to 240 °C | CN(C)c1nc(NS(=O)(=O)c2ccc(N)cc2)cc(N2CCC2)n1
45 | 173 to 174 °C | CC(C)C[C@H]1[C@@H]2C(=O)N(Cc3ccccc3)C(=O)[C@@H]2[C@H](c2ccc(C#N)cc2)N1C (racemic)
46 | 93 °C | COC(=O)c1ccc(C2=NOC(P(=O)(OC)OC)C2)cc1 (stereo not given)
47 | > 290 °C | O=C1N=CNC(=O)C1Cc1ccccc1C(F)(F)F (stereo not given)
48 | 166 °C | CC(Oc1cccc2c(Oc3ccc(C(F)(F)F)cc3F)cccc12)C(=O)O (stereo not given)

Row | melting point | SMILES
49 | 220 to 222 °C | COc1cccc2c1cc(C(=O)NCCc1ccncc1)n2Cc1cccc(C(=N)NO)c1
50 | 38.1 to 38.3 °C | CCCOC(=NNC(=O)OC)OCCC
51 | 60 to 63 °C | CCCCCCCCCCCCCCc1ccc(C(=O)OCC)[nH]1
52 | 170 °C | OC1CCCc2nc3ccccc3c(NCc3ccc(F)cc3)c21 (stereo not given)
53 | 182 to 184 °C | CON=C(C)CCc1nc2c(N)nc3ccccc3c2n1CC(C)(C)O
54 | 82 °C | CCc1cc(CCCc2ccc(CO)c(CO)c2)ccc1O
55 | 201 to 204 °C | CCC(=O)N1CCC(NC(=O)Nc2ccc(C(=O)OC)cc2)CC1
56 | 132 to 135 °C | NS(=O)(=O)c1ccc(N2N=C(C(F)(F)F)CC2c2ccccc2)cc1 (stereo not given)
57 | 84 to 89 °C | COc1cc(C(=O)N2CCC(CCN3CCC(C(=O)c4nc5ccccc5n4Cc4ccccn4)CC3)(c3ccccc3)C2)cc(OC)c1OC (stereo not given)
58 | > 175 °C | O=c1n(O)ccn1Cc1ccc(OCc2ccccc2)cc1
59 | 173 to 178 °C | O=[N+]([O-])c1ccc2c(c1)C(=NO)CCO2
60 | 136 to 137 °C | CCc1ccc2ncc(NC(=O)C=Cc3cc(OC)c(OC(C)=O)c(OC)c3)c(-c3ccccc3Cl)c2c1
61 | 179 to 181 °C | N#CC1C(=O)NC(=O)C(C#N)C12CCN(Cc1ccccc1)CC2 (stereo not given)
62 | 150 to 151 °C | O=Cc1cn(C2CCCCC2)nc1-c1ccc([N+](=O)[O-])o1
63 | 97 °C | Cc1cccc(-c2nc3ccc(OCCCCl)cc3n2Cc2ccccc2)c1
64 | 205 to 206 °C | Cc1ccc(C(=O)NC(NC(=S)Nc2ccccc2)C(F)(F)F)cc1 (stereo not given)
65 | 142 to 144 °C | CSC1NC(=O)N(c2ccc(Cl)cc2)C(=O)N1N=C(C)C (stereo not given)
66 | 242 to 244 °C | COCc1cccc(CNC(=O)c2nc3scc(COCc4ccc(C(=O)O)cc4)c3c(=O)[nH]2)c1
67 | 169 to 171 °C | CC=Cc1cccc2c(=O)c(C)c(-c3ccc(OC)cc3)oc12
68 | 107 °C | CCCCOc1cc(O)c(C#N)s1
69 | 58 to 59 °C | CC(C)COC(=O)N[C@@H](Cc1ccccc1)C(=O)CSCc1ccco1
70 | 144 to 146 °C | CCOC(=O)c1c(C)cc(C(=O)O)c(NC=O)c1C
71 | 71 °C | Cc1cccc2c1CCn1cc(-c3ccccc3)nc1C2OC1CCN(C)CC1 (stereo not given)
72 | 157 °C | COc1ccc(C=O)cc1-n1nnnc1C

Row | melting point | SMILES
73 | 129 to 130 °C | CC(C)(C)NC(=O)[C@@H]1C[C@H](O)CN1C(=O)OCc1ccccc1
74 | 80 °C | O=C(O)Cc1cccc(CNC(=O)C2Cc3ccccc3N2S(=O)(=O)c2ccc(-c3cccc(C(F)(F)F)c3)cc2)c1 (stereo not given)
75 | 168 to 171 °C | CC(C)C(=O)O[C@H]1[C@H](C)OC(=O)[C@@H](NC(=O)OC(C)(C)C)COC(=O)[C@@H]1CI
76 | 217 to 218 °C | O=C(Nc1cc(-c2ccnc3c(C(=O)c4cccs4)cnn23)ccc1Cl)c1ccccc1
77 | 127 to 129 °C | COC(=O)c1ccc(OC)c2oc(C)cc12
78 | 140 to 142 °C | CC(=O)N(C)c1nc(CN2CCN(C(c3ccccc3)c3ccccc3)CC2)cs1
79 | 238 °C | Cc1ccc(S(=O)(=O)NC(=O)c2nc(Cl)c(Cl)[nH]2)cc1
80 | 150 to 151 °C | CS(=O)(=O)Nc1ccc(OCC2CCN(C(=O)OCc3ccccc3)CC2)cc1
81 | 213 to 215 °C | Cc1cc(C(=O)NC2=NCCC2(c2ccccc2)c2ccccc2)[nH]n1
82 | 155 to 157 °C | COc1ccc(C)cc1NC(=O)Nc1ccc(N2CCN(C(=O)Nc3ccc(NC(C)=O)cc3Cl)CC2)cc1
83 | 122 °C | CCOC(=O)Nc1ccc(OCc2ccc(Cl)cc2)cc1[N+](=O)[O-]
84 | 219 to 220 °C | CCOC(=O)c1cc2c(O)nncc2nc1NC(C)C
85 | 129 °C | COc1cc(-c2nc3ccc(OCCCl)cc3n2Cc2ccccc2)cc(OC)c1OC
86 | 180 to 210 °C | CCOC(=O)C(C#N)=Cc1ccc([N+](=O)[O-])cc1C
87 | 180 to 184 °C | C=C1CC(c2ccc(C)c(C)c2)N(C)C1=O (stereo not given)
88 | > 300 °C | CC(C)CNC1NC(=O)N(c2ccccc2C(=O)O)C(=O)N1
89 | 155 to 157 °C | CN1CCN(c2ccc(Nc3ncc4ccc(Sc5ccccc5)n4n3)cc2)CC1
90 | 93 to 94 °C | C=CCNC(=O)C1CCc2cc(C3CCCCC3)ccc2O1 (stereo not given)
91 | 150 to 151 °C | COc1cc(-c2ccccc2C(F)(F)F)c(Cl)cc1C(=O)N1Cc2ccc(C(=O)N(C)CC(O)C(O)C(O)C(O)CO)n2Cc2ccccc21 (stereo not given)
92 | 86 to 87 °C | Cc1ccc(-c2ccc3c(c2)C(=O)CCC3)cc1
93 | 133 to 135 °C | Cc1cccc(NC(=O)NC2N=C(C3CCCCC3)c3ccccc3N(CC(=O)N3CC4CCC(CC4)C3)C2=O)c1 (racemic)
94 | < 40 °C | CCOC(=O)C(O)=CC=C(SCc1ccccc1)C(=O)OCC
95 | 157 to 158 °C | Cn1c(CNCC2CCOCC2)cc2cc(NC(=O)c3ccc(OC[C@@H]4CCCO4)cc3)ccc21

Row | SMILES | melting point
96 | CCOC12CCC(=O)C3(C)Oc4c(OC)ccc5c4C31CCN(CCc1ccccc1)C2C5 (stereo not given) | 86 to 89 °C
97 | CCOC(=O)CNC(=O)CCl | 60 to 62 °C
98 | Clc1ccc(OC2CCC3(CCNCC3)CC2)cc1 | 140 to 142 °C
99 | Cc1ncc(CN2CC=C(c3ccccc3)CC2)c(N)n1 | 165 to 166 °C
100 | CCCOc1ccc(F)c2c1c(CCN(C)C)cn2CC | 49 to 50 °C
